Reference: ChEMBL document CHEMBL1157163, “In vitro permeability and metabolic stability of bile pigments and the effects of hydrophilic and lipophilic modification of biliverdin” (Bioorg Med Chem, 2008)

Tests used:
[1] = Apparent permeability across human Caco-2 cells; assay type: ADME, cell-based
[2] = Apparent permeability across human Caco-2 cells in presence of BSA in basolateral chamber; assay type: ADME, cell-based
Caco-2 = assay: Metabolic stability in human Caco-2 cell homogenate; assay type: ADME, cell-based
[3] = Metabolic stability in presence of BSA; assay type: ADME
[4] = Toxicity against rat erythrocytes assessed as hemolysis upto 1000 uM; assay type: cell-based; settings: erythrocyte
[5] = Toxicity against rat erythrocytes assessed as hemolysis upto 1000 uM in presence of BSA; assay type: cell-based; settings: erythrocyte
[6] = Toxicity against rat erythrocytes assessed as induction of hemolysis at >= 1000 uM; assay type: cell-based; settings: erythrocyte
[7] = Toxicity against rat erythrocytes assessed as decrease in hemolysis in presence of BSA; assay type: cell-based; settings: erythrocyte

| Papp [1] [×10⁻⁶ cm/s] | Papp [2] [×10⁻⁶ cm/s] | Stability (Caco-2) | Stability [3] | Structure (SMILES) | Activity [4] | Activity [5] | Activity [6] | Activity [7] |
| --- | --- | --- | --- | --- | --- | --- | --- | --- |
| 0.39 | 3.52 | Stable | Stable | C=CC1=C(C)/C(=C/c2[nH]c(Cc3[nH]c(/C=C4\NC(=O)C(C)=C4C=C)c(C)c3CCC(=O)NCCS(=O)(=O)O)c(CCC(=O)NCCS(=O)(=O)O)c2C)NC1=O [BILIRUBIN DITAURATE] | Non-toxic | Non-toxic |  |  |
| 0.02 | 1.04 |  | 0.33 %/min | C=CC1=C(C)/C(=C/c2[nH]c(Cc3[nH]c(/C=C4\NC(=O)C(C)=C4C=C)c(C)c3CCC(=O)O)c(CCC(=O)O)c2C)NC1=O [BILIRUBIN] |  |  | Toxic | Non-toxic |
|  |  | Stable | Stable | C=CC1=C(C)/C(=C/C2=NC(=C\c3[nH]c(/C=C4\NC(=O)C(C)=C4C=C)c(C)c3CCC(=O)N[C@H]3C(O)O[C@H](CO)[C@@H](O)[C@@H]3O)/C(CCC(=O)N[C@@H]3C(O)O[C@@H](CO)[C@H](O)[C@H]3O)=C2C)NC1=O (some centres undefined) [BILIVERDIN DIGLUCOSAMINE] |  |  |  |  |
| 1.01 | 3.7 | Stable | Stable | C=CC1=C(C)/C(=C/C2=NC(=C\c3[nH]c(/C=C4\NC(=O)C(C)=C4C=C)c(C)c3CCC(=O)O)/C(CCC(=O)O)=C2C)NC1=O [BILIVERDIN] | Non-toxic | Non-toxic |  |  |
